Assay results: PubChem BioAssay AID1259407 (Chemical Carcinogenesis Research Information System (CCRIS), 2018)
“Also recorded” adds a separate entry of the source. The source made the active and inactive calls. No rule for the calls is given here.

Tested on: CCRIS mutagenicity, Ames/micronucleus/aberration tests
Assay: CCRIS mutagenicity studies
[1] = Test System: AMES SALMONELLA TYPHIMURIUM, Strain/Indicator: TA98, Metabolic Activation: NONE, Method: PREINCUBATION
[2] = Test System: AMES SALMONELLA TYPHIMURIUM, Strain/Indicator: TA100, Metabolic Activation: NONE, Method: PREINCUBATION
[3] = Test System: AMES SALMONELLA TYPHIMURIUM, Strain/Indicator: TA1535, Metabolic Activation: NONE, Method: PREINCUBATION
[4] = Test System: AMES SALMONELLA TYPHIMURIUM, Strain/Indicator: TA1537, Metabolic Activation: NONE, Method: PREINCUBATION
[5] = Test System: AMES SALMONELLA TYPHIMURIUM, Strain/Indicator: TA100, Metabolic Activation: RAT, LIVER, S-9, PHENOBARBITAL, Method: PREINCUBATION

For `COc1ccc(C)cc1N`, the mutagenic call (End Point: In vitro chromosomal aberrations, Test System: Chinese hamster lung (CHL/IU) cells, Metabolic Activation: None) was “active; positive (structural changes). toxicity at 1.2 mg/ml; also recorded: active; positive (structural changes). toxicity at 0.60 mg/ml; also recorded: active; positive (structural changes). toxicity at 0.8 mg/ml; no dose response observed”, the mutagenic call (End Point: In vitro chromosomal aberrations, Test System: Chinese hamster lung (CHL/IU) cells, Metabolic Activation: Rat, Liver, S9, Phenobarbital and 5,6-benzoflavone) was “active; positive (structural changes and ploidy). toxicity at 1.2 mg/ml; no dose respons” and the mutagenic call (End Point: In vivo micronucleus, Test System: Polychromatic erythrocytes, Species: Mouse, Strain/Sex: C57BL/6TacBr-[KO]p53[TSG-p53], Route: Oral) was “active; positive at all days”. For the same compound, the mutagenic call (Test System: AMES SALMONELLA TYPHIMURIUM, Strain/Indicator: TA98, Metabolic Activation: HAMSTER, LIVER, S-9, AROCLOR 1254 (30%), Method: PREINCUBATION) was “active; positive”, the mutagenic call (Test System: AMES SALMONELLA TYPHIMURIUM, Strain/Indicator: TA98, Metabolic Activation: HAMSTER, LIVER, S-9, PHENOBARBITAL AND BETA-NAPHTHOFLAVONE, Method: PREINCUBATION) was “active; positive” and the mutagenic call [1] was “inactive; negative”. For the same compound, the mutagenic call (Test System: AMES SALMONELLA TYPHIMURIUM, Strain/Indicator: TA98, Metabolic Activation: RAT, LIVER, S-9, AROCLOR 1254 (30%), Method: PREINCUBATION) was “active; positive”, the mutagenic call (Test System: AMES SALMONELLA TYPHIMURIUM, Strain/Indicator: TA100, Metabolic Activation: HAMSTER, LIVER, S-9, AROCLOR 1254 (30%), Method: PREINCUBATION) was “active; positive” and the mutagenic call (Test System: AMES SALMONELLA TYPHIMURIUM, Strain/Indicator: TA100, Metabolic Activation: HAMSTER, LIVER, S-9, PHENOBARBITAL AND BETA-NAPHTHOFLAVONE, Method: PREINCUBATION) was “active; positive”. The mutagenic call [2] was “inactive; negative”, the mutagenic call (Test System: AMES SALMONELLA TYPHIMURIUM, Strain/Indicator: TA100, Metabolic Activation: RAT, LIVER, S-9, AROCLOR 1254 (30%), Method: PREINCUBATION) was “active; positive” and the mutagenic call (Test System: AMES SALMONELLA TYPHIMURIUM, Strain/Indicator: TA1535, Metabolic Activation: HAMSTER, LIVER, S-9, PHENOBARBITAL AND BETA-NAPHTHOFLAVONE, Method: PREINCUBATION) was “inactive; negative”. For the same compound, the mutagenic call [3] was “inactive; negative”, the mutagenic call (Test System: AMES SALMONELLA TYPHIMURIUM, Strain/Indicator: TA1537, Metabolic Activation: HAMSTER, LIVER, S-9, PHENOBARBITAL AND BETA-NAPHTHOFLAVONE, Method: PREINCUBATION) was “active; positive” and the mutagenic call [4] was “inactive; negative”. For the same compound, the mutagenic call (Test System: E. COLI, Strain/Indicator: WP2UVRA, Metabolic Activation: HAMSTER, LIVER, S-9, PHENOBARBITAL AND BETA-NAPHTHOFLAVONE, Method: PREINCUBATION) was “inactive; negative”, the mutagenic call (Test System: E. COLI, Strain/Indicator: WP2 UVRA, Metabolic Activation: HAMSTER, LIVER, S-9, Method: STANDARD PLATE) was “inactive; negative” and the mutagenic call (Test System: E. COLI, Strain/Indicator: WP2 UVRA, Metabolic Activation: MOUSE, LIVER, S-9, AROCLOR 1254, Method: STANDARD PLATE) was “inactive; negative”. The mutagenic call (Test System: E. COLI, Strain/Indicator: WP2UVRA, Metabolic Activation: NONE, Method: PREINCUBATION) was “inactive; negative”, the mutagenic call (Test System: E. COLI, Strain/Indicator: WP2 UVRA, Metabolic Activation: NONE, Method: STANDARD PLATE) was “inactive; negative” and the mutagenic call (Test System: E. COLI, Strain/Indicator: WP2 UVRA, Metabolic Activation: RAT, LIVER, S-9, AROCLOR 1254, Method: STANDARD PLATE) was “inactive; negative”. The mutagenic call (Test System: E. COLI, Strain/Indicator: WP2 UVRA, Metabolic Activation: RAT, LIVER, S-9, Method: STANDARD PLATE) was “inactive; negative” and the mutagenic call (Test System: UDS RODENT HEPATOCYTES, Strain/Indicator: THY INCORP (NON-S-PHASE), Metabolic Activation: NONE, Method: AUTORADIOGRAPHY) was “inactive; negative”.
In the case of `Cc1cc(O)c2c(c1O)C(=O)C13C(=C2O)C(=O)C2C(O)C1C1C(O)C3C(=O)C3=C(O)c4c(O)cc(C)c(O)c4C(=O)C321` (centres undefined), the mutagenic call [2] is reported as “inactive; negative” and the mutagenic call [5] is reported as “inactive; negative”.
`BrCC(Br)CBr` was tested, and the mutagenic call (Test System: AMES SALMONELLA TYPHIMURIUM, Strain/Indicator: TA100, Metabolic Activation: RAT, LIVER, MICROSOMES, PHENOBARBITAL, NADPH COFACTORS, Method: STANDARD PLATE) was “active; positive” and the mutagenic call (Test System: AMES SALMONELLA TYPHIMURIUM, Strain/Indicator: TA100, Metabolic Activation: RAT, LIVER, MICROSOMES, PHENOBARBITAL, Method: STANDARD PLATE) was “inactive; negative”.
`CCC(=O)N(O)c1ccc2ccccc2c1` was tested, and the mutagenic call [1] was “inactive; negative”, the mutagenic call (Test System: AMES SALMONELLA TYPHIMURIUM, Strain/Indicator: TA98, Metabolic Activation: RAT, LIVER, CYTOSOL, Method: PREINCUBATION) was “inactive; negative” and the mutagenic call (Test System: AMES SALMONELLA TYPHIMURIUM, Strain/Indicator: TA98, Metabolic Activation: RAT, LIVER, MICROSOMES, Method: PREINCUBATION) was “active; positive”.
For `O=S(=O)(O)c1ccc2c(N=Nc3ccccc3)c(O)ccc2c1`, the mutagenic call [1] was “inactive; negative”, the mutagenic call (Test System: AMES SALMONELLA TYPHIMURIUM, Strain/Indicator: TA98, Metabolic Activation: RAT, LIVER, S-9, PHENOBARBITAL, Method: PREINCUBATION) was “inactive; negative” and the mutagenic call [2] was “inactive; negative”. The mutagenic call [5] was “inactive; negative”.
`O=CNNc1nc(-c2ccc([N+](=O)[O-])o2)cs1` was tested, and the mutagenic call (Test System: AMES SALMONELLA TYPHIMURIUM, Strain/Indicator: TA100, Metabolic Activation: RAT, LIVER, S-9, KC500 OR PHENOBARBITAL, Method: LIQUID SUSPENSION) was “active; positive”, the mutagenic call (Test System: E. COLI, Strain/Indicator: WP2, Metabolic Activation: NONE, Method: SPOT) was “active; positive” and the mutagenic call (Test System: E. COLI, Strain/Indicator: WP2 UVRA, Metabolic Activation: NONE, Method: SPOT) was “active; positive”.
With `Nc1nc(=O)n([C@H]2C[C@H](O)[C@@H](CO)O2)cc1I` the mutagenic call (Test System: AMES SALMONELLA TYPHIMURIUM, Strain/Indicator: TA97, Metabolic Activation: NONE, Method: PREINCUBATION) was “inactive; negative”, the mutagenic call (Test System: AMES SALMONELLA TYPHIMURIUM, Strain/Indicator: TA97, Metabolic Activation: RAT, LIVER, S-9, AROCLOR 1254, Method: PREINCUBATION) was “inactive; negative” and the mutagenic call [1] was “inactive; negative”. The mutagenic call (Test System: AMES SALMONELLA TYPHIMURIUM, Strain/Indicator: TA98, Metabolic Activation: RAT, LIVER, S-9, AROCLOR 1254, Method: PREINCUBATION) was “inactive; negative”, the mutagenic call [2] was “inactive; negative” and the mutagenic call (Test System: AMES SALMONELLA TYPHIMURIUM, Strain/Indicator: TA100, Metabolic Activation: RAT, LIVER, S-9, AROCLOR 1254, Method: PREINCUBATION) was “inactive; negative”. The mutagenic call (Test System: AMES SALMONELLA TYPHIMURIUM, Strain/Indicator: TA102, Metabolic Activation: NONE, Method: PREINCUBATION) was “inactive; negative”, the mutagenic call (Test System: AMES SALMONELLA TYPHIMURIUM, Strain/Indicator: TA102, Metabolic Activation: RAT, LIVER, S-9, AROCLOR 1254, Method: PREINCUBATION) was “inactive; negative” and the mutagenic call (Test System: AMES SALMONELLA TYPHIMURIUM, Strain/Indicator: TA104, Metabolic Activation: NONE, Method: PREINCUBATION) was “inactive; negative”. The mutagenic call (Test System: AMES SALMONELLA TYPHIMURIUM, Strain/Indicator: TA104, Metabolic Activation: RAT, LIVER, S-9, AROCLOR 1254, Method: PREINCUBATION) was “inactive; negative”, the mutagenic call [3] was “inactive; negative” and the mutagenic call (Test System: AMES SALMONELLA TYPHIMURIUM, Strain/Indicator: TA1535, Metabolic Activation: RAT, LIVER, S-9, AROCLOR 1254, Method: PREINCUBATION) was “inactive; negative”. For the same compound, the mutagenic call [4] was “inactive; negative”, the mutagenic call (Test System: AMES SALMONELLA TYPHIMURIUM, Strain/Indicator: TA1537, Metabolic Activation: RAT, LIVER, S-9, AROCLOR 1254, Method: PREINCUBATION) was “inactive; negative” and the mutagenic call (Test System: AMES SALMONELLA TYPHIMURIUM, Strain/Indicator: TA1538, Metabolic Activation: NONE, Method: PREINCUBATION) was “inactive; negative”. For the same compound, the mutagenic call (Test System: AMES SALMONELLA TYPHIMURIUM, Strain/Indicator: TA1538, Metabolic Activation: RAT, LIVER, S-9, AROCLOR 1254, Method: PREINCUBATION) was “inactive; negative” and the mutagenic call (Test System: CHINESE HAMSTER V-79, Strain/Indicator: V-79/8-AZAGUANINE, Metabolic Activation: NONE) was “inactive; negative”.
